In publication PMC13450841 (PLOS Pathogens, 2026):
“Also recorded” adds a separate entry of the source. Where two headings read alike, the source gives them in different places. Where a SMILES comes first, the peptide text is derived from it.

How the values were obtained:
[1] = biological target: T1, ExoU (Pseudomonas aeruginosa, UniProt O34208); assay: ExoU in vitro phospholipase assay (real-time, dose-response); assay type: biochemical; conditions: for Inhibition of ExoU phospholipase activity (in words): real-time phospholipase assay, Fig 2A, 2B, 2E
[2] = tested on: T3SS gene expression in P. aeruginosa PA103 and PAO1; assay: Quantitative RT-PCR of T3SS gene expression; assay type: cell-based, Pseudomonas aeruginosa; conditions: Bis 10 µM, Zp 2.5 µM, Pol 1 µM in LB
[3] = tested on: HCE-T cells infected with exoU⁺ clinical P. aeruginosa keratitis isolates; assay: CellDiscoverer 7 high-content screen, exoU+ isolates; assay type: cell-based, human; conditions: 4.5 h post-infection; Bis 10 µM, Zp 2.5 µM, Pol 1 µM; DMSO ~43%
[4] = tested on: P. aeruginosa PA103; design: species or system porcine; conditions: 48 hours
[5] = biological target: T2, PLA2G4C (Homo sapiens, UniProt Q9UP65); assay: Human phospholipase assay, thio-BGPC substrate; assay type: biochemical; conditions: 10 µM, S4 Fig
T2 construct: 6xHis (N); made in house; host or cells: E. coli C43(DE3)
T2 sequence (Q9UP65 1-541): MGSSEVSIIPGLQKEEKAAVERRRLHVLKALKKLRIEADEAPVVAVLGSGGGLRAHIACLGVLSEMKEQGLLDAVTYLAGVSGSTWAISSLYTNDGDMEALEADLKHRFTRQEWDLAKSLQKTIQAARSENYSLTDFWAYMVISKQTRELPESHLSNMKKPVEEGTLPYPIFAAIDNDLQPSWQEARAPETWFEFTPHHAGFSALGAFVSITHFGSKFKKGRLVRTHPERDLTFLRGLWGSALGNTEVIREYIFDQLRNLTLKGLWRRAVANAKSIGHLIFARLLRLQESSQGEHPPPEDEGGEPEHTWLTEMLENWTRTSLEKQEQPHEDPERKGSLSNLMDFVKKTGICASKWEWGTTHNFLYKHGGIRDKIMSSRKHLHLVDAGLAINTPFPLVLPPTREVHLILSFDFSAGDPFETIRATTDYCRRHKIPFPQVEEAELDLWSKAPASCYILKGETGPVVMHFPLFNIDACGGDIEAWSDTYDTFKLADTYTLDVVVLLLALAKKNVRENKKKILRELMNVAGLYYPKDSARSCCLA
Procedure: Recombinant human PLA2G7 and PLA2G4C activities were measured in 96well, -well, UVtransparent microplates (Corning) in a final volume of 50 µL per well. Reactions were carried out in 20 mM […] TrisHCl-HCl (pH 8.2), 100 mM NaCl, and 0.01% Tween 20, with a 1% (v/v) final DMSO concentration. For PLA2G7, substrate cleavage was monitored using 0.6 mM 2-thio-PAF (Cambridge Bioscience Ltd), and for PLA2G4C, 0.6 mM arachidonoyl thio-bis-glycerophosphocholine (thioBGC-BGC; Cambridge Bioscience Ltd) was employed. In both assays, 1 mM DTNB (5,5′-dithiobis-(2nitrobenzoic acid), -nitrobenzoic acid), SigmaAldrich-Aldrich) served as the chromogenic reporter. Enzyme (500 nM final) was preequilibrated with buffer at 25 °C for 5 min before initiating-equilibrated with buffer at 25 °C for 5 min before initiating the reaction by substrate addition. Absorbance at 414 nm was recorded every minute for 1 h on a Hidex plate reader.
(B) ExoU activity was assessed using arachidonoyl thio-phosphatidylcholine (thio-PC) in the presence of 10 µM of the indicated compound. […] (TIF)

[6] = biological target: T1, ExoU; assay: BS3 cross-linking and SDS-PAGE of ExoU oligomerisation; conditions: 10 µM inhibitor
Procedure: Four reaction mixtures (50 µL each) were prepared at room temperature: ExoU alone; ExoU with 5 µM PIP2; ExoU with 10 µM inhibitor; and ExoU with both 5 µM PIP2 and 10 µM inhibitor for 30 minutes at 25 °C. […] Reactions were quenched by addition of Tris HCl pH 7.4 to 50 mM and a further 15 min incubation at room temperature. […] Membranes were blocked in TBST containing 5% (w/v) non-fat milk for 1 h, then incubated overnight at 4 °C with mouse anti-His monoclonal antibody (Bio Rad; 1:2,000). After washing in TBST, membranes were incubated with HRP-conjugated goat anti-mouse IgG for 1 h at room temperature. Signal was detected by chemiluminescence with X ray film exposure, and band patterns were analysed to determine the distribution of monomeric and oligomeric ExoU species under each condition.

[7] = tested on: EGFP-tagged ExoU (S142A); assay: EGFP-ExoU (S142A) abundance and lysosome colocalisation in transfected HEK293T cells
[8] = tested on: P. aeruginosa PA103; assay type: in vivo, Galleria mellonella
[9] = biological target: T1, ExoU; assay: nanoDSF thermal stability of ExoU; assay type: binding; conditions: 10 µM compound; for ΔTm at 10 µM: read-out: Decrease of ExoU Tm
Procedure: Thermal stability of recombinant His₆-ExoU was assessed using a Prometheus NT.48 instrument (NanoTemper Technologies, Cambridge, UK) without extrinsic dyes, as these were not compatible with the use of PIP2. ExoU was diluted to 5 µM in 20 mM TrisHCl-HCl (pH 8.2), 100 mM NaCl, and 10% (v/v) glycerol. To evaluate ligand effects, four samples were prepared: ExoU alone, ExoU with 5 µM PIP2, ExoU with 10 µM inhibitor, and ExoU with both 5 µM PIP2 and 10 µM indicated inhibitor, each maintaining 1% (v/v) DMSO. Ten microliters of each mixture were loaded into highsensitivity-sensitivity nanoDSF glass capillaries and subjected to a thermal ramp from 25 °C to 95 °C at 1 °C/min. Intrinsic tryptophan fluorescence emission at 330 nm and 350 nm was recorded continuously, and the ratio F₃₅₀/F₃₃₀ was plotted against temperature. Melting temperatures (Tₘ) were determined from the inflection point of the first derivative of the fluorescence ratio using the manufacturer’s analysis software. All conditions were measured in triplicate. Changes in melting temperature (Δ Tₘ) compared to DMSO, or DMSO PIP2 controls were plotted using GraphPad.
Supplementary file ppat.1014474.s008.tif: S7 Fig Nano differential scanning fluorimetry (nanoDSF) analysis of ExoU thermal stability in the presence of compounds. Raw melt curves of recombinant ExoU are shown in the absence (left) and presence (right) of PIP2 (5 µM) from three independent (A-C) experiments. Compounds were tested at 10 µM. Intrinsic tryptophan fluorescence emission was continuously monitored at 330 nm and 350 nm as the temperature increased, and the fluorescence ratio (F₃₅₀/F₃₃₀) was plotted against temperature. Melting temperatures (Tₘ) were calculated from the average inflection point of the first derivative of the fluorescence ratio using the manufacturer’s analysis software. (TIF)

[10] = biological target: T3, human PLA2G7 (Homo sapiens, UniProt Q13093); assay: Human phospholipase assay, 2-thio-PAF substrate; assay type: biochemical; conditions: 10 µM, S4 Fig
T3 construct: 6xHis (N); made in house; host or cells: E. coli C43(DE3)
T3 sequence (Q13093 22-441): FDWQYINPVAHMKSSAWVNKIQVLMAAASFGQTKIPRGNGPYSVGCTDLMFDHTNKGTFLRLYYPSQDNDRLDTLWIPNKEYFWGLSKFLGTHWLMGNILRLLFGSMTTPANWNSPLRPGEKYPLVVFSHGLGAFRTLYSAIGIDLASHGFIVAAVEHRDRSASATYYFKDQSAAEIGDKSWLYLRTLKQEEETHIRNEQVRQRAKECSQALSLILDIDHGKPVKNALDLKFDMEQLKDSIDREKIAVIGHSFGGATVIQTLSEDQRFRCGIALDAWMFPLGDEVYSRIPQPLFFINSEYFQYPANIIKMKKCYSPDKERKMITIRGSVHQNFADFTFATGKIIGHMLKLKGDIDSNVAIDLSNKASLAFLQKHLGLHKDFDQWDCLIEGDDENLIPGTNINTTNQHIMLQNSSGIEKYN

[11] = tested on: PA103-infected HCE-T cells; assay: LDH release assay in PA103-infected scratched HCE-T cells; assay type: cell-based, human; conditions: 2.5 µM compound, PA103 MOI 10, 4 hours, S6 Fig
From the text: Percentage lysis was normalized to the maximal LDH release from the kit positive control (CyQUANT; Thermo Fisher). (TIF)

[12] = tested on: primary human corneal epithelial cells
[13] = tested on: P. aeruginosa PA103; conditions: read-out: IC50 of bacterial growth
[14] = in vitro; conditions: human, primary human corneal (limbal) epithelial cells
[15] = Fig 1B dose-response, PIP2 and ubiquitin present, read-out: IC50 for ExoU inhibition in vitro
[16] = Fig 2C dose-response phospholipase assays, read-out: IC50 of bismuth-based ExoU inhibitors and subcitrate alone
[17] = Fig 3C, three-parameter fit, read-out: IC50 for ExoU inhibition, individual inhibitors or equimolar combinations

## [O-][n+]1ccccc1S [pyrithione]
[1]
  Inhibition of ExoU phospholipase activity (in words): Neither copper pyrithione, nor pyrithione inhibited ExoU

## On1ccccc1=S.On1ccccc1=S.[Cu] [copper pyrithione]
[1]
  Inhibition of ExoU phospholipase activity (in words): Neither copper pyrithione, nor pyrithione inhibited ExoU

## lauric acid–Asp–Thr–Dab [Poltide 2]
[1]; Fig 2E
  IC50 for ExoU inhibition, polymyxin B and poltide analogues: no effect on ExoU activity

## subcitrate
[1]; Fig 2C dose-response phospholipase assays
  IC50 of bismuth-based ExoU inhibitors and subcitrate alone: No inhibition

## [H]/N=C(\N/C(=N/[H])NCCCCCCNC(=N)NC(=N)Nc1ccc(Cl)cc1)Nc1ccc(Cl)cc1 [chlorhexidine]
[1]; [15]
  IC50: 18.5 ± 3.3 µM

## COc1cc2c(cc1OC)[C@@H](Cc1cc(OC)c(OC)c(OC)c1)[N+](C)(CCCOC(=O)CC/C=C/CCC(=O)OCCC[N+]1(C)CCc3cc(OC)c(OC)cc3[C@H]1Cc1cc(OC)c(OC)c(OC)c1)CC2 (stereo partly shown) [mivacurium chloride]
[1]; [15]
  IC50: 6 ± 1.8 µM

## O=C([O-])CC(O)(CC(=O)[O-])C(=O)[O-].O=C([O-])CC(O)(CC(=O)[O-])C(=O)[O-].[Bi+3].[K+].[K+].[K+] [Bis, bismuth subcitrate]
[2]
  Expression of exsA, pcrV, exoU in PA103, or exsA, pcrV, exoS in PAO1: no significant changes
[1]; [15]
  IC50: 12.8 ± 1 µM
[1]; [16]
  IC50: 9.9 µM
[1]; [17]
  IC50: 13.3 ± 2.9 µM
[3]
  Mean live-cell area relative to non-infected controls: 55.8%
[4]
  Histology (H&E) of infected corneas: partial epithelial preservation and less stromal damage
[4]; Bis 5 µM, Zp 2.5 µM, Pol 1 µM topical
  Corneal opacity: performing slightly better than Zp
[5]
  Inhibition of PLA2G4C: no inhibition
[6]; with PIP2
  Migration of BS3 cross-linked ExoU on SDS-PAGE: single discrete high‐molecular‐weight band
[6]; without PIP2
  Migration of BS3 cross-linked ExoU on SDS-PAGE: did not alter this profile
[7]; 5 µM, 16 h
  Level of EGFP-tagged ExoU (S142A) by Western blot: substantially reduced
[7]; 16 h
  EGFP-ExoU (S142A) fluorescence and localisation (confocal): marked reduction; also recorded: redistributed into punctate structures that co-localised with RFP-LAMP1
[7]; 16 h compound treatment, DMSO r = 0.05
  Pearson's correlation coefficient r, ExoU-lysosome (RFP-LAMP1) colocalisation: 0.49
[8]; PA103 1 × 10⁵ CFU, Bis 0.1 mg/g, Zp 0.01 mg/g, Pol 0.004 mg/g, 40 h
  Clinical score: mean±SD (health score 0-9): 4.17 ± 3.89
[8]; PA103-infected larvae, PA103 alone 16
  Median survival: 16 h
[8]; in a subset of larvae
  Delay of disease progression: approximately 8 h
[9]; absence of PIP2
  Decrease of ExoU Tm: no measurable effect
[9]; with 5 µM PIP2
  Decrease of ExoU Tm: ~ 2 °C
[10]
  Inhibition of PLA2G7 enzymatic activity: neither Bis, Pol, nor Zp inhibited enzymatic activity

## [Cl][Bi]([Cl])[Cl] [Bismuth chloride, bismuth chloride]
[1]; [16]
  IC50: 9.2 µM

## CCN(CC)CCN(Cc1ccc(-c2ccc(C(F)(F)F)cc2)cc1)C(=O)Cn1c(SCc2ccc(F)cc2)nc(=O)c2c1CCC2 [darapladib]
[1]; 10 µM compound, S4 Fig
  ExoU activity with arachidonoyl thio-PC substrate: did not inhibit ExoU activity

## CC(=O)Oc1ccc(C(=C2CCCCC2)c2ccc(OC(C)=O)cc2)cc1 [cyclofenil]
[1]; [15]
  IC50: 20.2 ± 2.8 µM

## O=S(=O)([O-])[O-].[Zn+2] [zinc sulphate]
[1]
  Inhibition of ExoU phospholipase activity (in words): inhibited ExoU phospholipase activity
[11]
  Mean lysis (LDH release): 89%

## CC[C@H](C)CCCCC(=O)N[C@@H](CCN)C(=O)N[C@H](C(=O)N[C@@H](CCN)C(=O)N[C@H]1CCNC(=O)[C@H]([C@@H](C)O)NC(=O)[C@H](CCN)NC(=O)[C@H](CCN)NC(=O)[C@H](CC(C)C)NC(=O)[C@@H](Cc2ccccc2)NC(=O)[C@H](CCN)NC1=O)[C@@H](C)O [Pol, polymyxin B] (HELM PEPTIDE1{[CC[C@H](C)CCCCC(=O)[*:2]].[Dab].T.[Dab].[Dab].[Dab].[dF].L.[Dab].[Dab].T}$PEPTIDE1,PEPTIDE1,5:R3-11:R2$$$V2.0)
[1]; [15]
  IC50: 13.1 ± 1.7 µM
[1]; [17]
  IC50: 11.6 ± 0.9 µM
[1]; IC50 for ExoU inhibition, polymyxin B and poltide analogues, Fig 2E
  IC50: 13 µM
[12]
  LD50 (LDH release): 42.5 ± 10.6 µM
[13]; in DMEM/F-12 supplemented with 10% (v/v) FBS
  IC50: 2.1 µM
[13]; in LB
  IC50: 0.75 µM
[14]
  CC50 at 48 h: 43 µM
[9]; absence of PIP2
  ΔTm at 10 µM: -3.8 °C
[9]; with 5 µM PIP2
  ΔTm at 10 µM: -6.2 °C

## CC[C@H](C)CCCCC(=O)O [(S)-6-methyloctanoic acid]
[1]
  Inhibition of ExoU phospholipase activity (in words): failed to inhibit ExoU
